Measurements from article PMC8110578, “Phenylethynylbenzyl-modified biguanides inhibit pancreatic cancer tumor growth” (Scientific Reports, 2021).

What was measured:
[1] = test system: mitochondria of KP4 cells expressing pMXs-3XHA-EGFP-OMP25; assay: Mitochondrial permeation and accumulation (anti-HA IP, MALDI-MS); type: cell-based, human; conditions: 15 µM, 3 h
Experimental: Figure 2 (A) Partition of compounds in an U-tube experiment. Concentration of biguanide on the trans-side of the U-tube at 48 h and 72 h at 25 °C, after addition of 250 µM of biguanide on the cis-side. (B) Variation in the internal pH of HPTS-containing EYPC liposomes. Intravesicular solution: 1 mM HPTS, 10 mM HEPES, and 100 mM NaCl, adjusted to pH = 7.4, and extravesicular solution: 10 mM HEPES and 100 mM NaCl, adjusted to pH = 7.4. Biguanidiums were injected after 50 s at 5 mM (50 mol% relative to the 10 mM EYPC concentration), a NaOH pulse was induced at 300 s, and the liposomes were lysed with Triton-X at 550 s. Each curve is the average of three independent measurements. (C) Fluorescence of safranin O in the EYPC liposomes. Biguanidium salts were injected at 5 mM (50 mol% relative to the 10 mM EYPC concentration) at 50 s. Each curve is the average of three independent measurements. […] Mitochondrial isolation was performed according to the previously reported protocol.

[2] = Lucigenin assay, chloride transport in EYPC liposomes; conditions: lucigenin-containing liposomes
Excerpt: Phospholipid vesicles can be used as models for studying membrane insertion and permeabilization. Using an anion-selective probe in synthetic phospholipid liposomes, anion transport can be monitored by fluorescence. […] This basification was further enhanced with the addition of a base pulse to the external solution at 300 s, indicating either a transport of protons to the extravesicular solution, or the transport of hydroxyls to the intravesicular solution. This was also reported for alkylbiguanidium salts and was described as an electrogenic process, i.e. the transmembrane transport of an ion without the balance of the charge through the movement of another ion, which usually results in a charge transfer. […] […]. The transport of H^+/OH^− ions across the membrane is an electrogenic mechanism that usually causes the depolarization of the electrochemical gradient across phospholipid membranes. When EYPC-LUVs liposomes containing intravesicular K^+ ions are bathing in an extravesicular solution containing Na^+ ions a small membrane potential is generated at their membranes, and the fluorescence of Safranin-O can be used as a membrane potential probe. […].
Experimental. […] The fluorescence was monitored for 350 s.

[3] = test system: NAD+/NADH ratio in PSN1 cells; assay: NAD/NADH quantification, PSN1 cells; type: cell-based; conditions: 15 µM, 6 h
Experimental: All chemicals were purchased from Aldrich Chemicals in their highest purity and used without further purification. Deuterated dimethylsulfoxide (DMSO-d^6) and deuterated chloroform (CDCl3) were purchased from CDN Isotopes. NMR spectra were recorded on Bruker advance 400 and 100 spectrometers. Coupling constants are given in hertz (Hz) and chemical shifts are given in parts per million (ppm, δ) measured relative to the residual solvent (the multiplicity of the signals are given as s: singlet, d: doublet, t: triplet, and m: multiplet). High-resolution mass spectra (HRMS) were recorded on a TSQ Quantum Ultra (Thermo Scientific) triple quadrupole with accurate mass option instrument (Université de Montréal Mass Spectrometry Facility). […] Transport and depolarization studies as well as absorbance measurements were performed on a Varian Cary Eclipse fluorescence spectrophotometer. The hemolysis assays were performed on a Fluostar Optima plate reader. […] A suitable crystal was selected and analysed on a Bruker Venture Metaljet diffractometer. Crystal violet retention assay was used for cell growth assays and IC50 were determined using Prism (GraphPad). NAD/NADH quantitation colorimetric kit (#K337-100) from Biovision was used according to manufacturer’s instructions. ECAR (extracellular acidification rate) and OCR of KP4 cells (oxygen consumption rate) were measured on a Seahorse XF-24 (Agilent). […]

[4] = Solubility in methanol and DMSO; type: physicochemical; conditions: even at high concentrations
cancer cells = conditions: cited from earlier work

Row | Structure (SMILES) | Mitochondrial penetration [1] | Chloride transport across EYPC-LUV membrane [2] | Decrease of NAD+/NADH ratio [3] | Solubility in methanol and DMSO [4] | Reported antiproliferative concentration in vitro (cancer cells)
1 | N=C(N)NC(=N)NCc1ccc(C#Cc2ccccc2)cc1 [1b, 4-(phenylethynyl)benzylbiguanide] | able to efficiently penetrate mitochondria | did not transport chloride | 25% | good methanol and DMSO solubility even at high concentrations | 
2 | CN(C)C(=N)NC(=N)N [metformin, 1,1-dimethylbiguanide, reference compound] |  |  |  |  | 5 mM
